Measured values reported in ChEMBL document CHEMBL1141329, “Cyclic peptides from an endophytic fungus obtained from a mangrove leaf (Kandelia candel)” (J Nat Prod, 2007).
Converted amounts (≈) assume the structure as drawn.

Test system: MCF7
Experiment: Antitumor activity against human MCF7 cells by MTT assay
Type: functional, cell-based

IC50: 100 µg/mL (≈ 166 µM)
SMILES: CC(C)C[C@@H]1OC(=O)CNC(=O)[C@H](C(C)C)NC(=O)[C@H](Cc2ccc(O)cc2)NC(=O)CNC(=O)[C@@H](CC(C)C)NC1=O
